Measured values as given in patent publication US8895551B2, “Acrylamide compounds and the use thereof” (Shionogi & Co., Ltd., priority 2009, dated 2014).

Molecular target: T1, N-type calcium channel (NTCC) (Homo sapiens, UniProt Q00975)
T1 construct: host or cells: IMR32 cells differentiated with dibutyryl cyclic AMP and bromodeoxyuridine
Test: FLIPR calcium mobilization assay for N-type calcium channel
Assay type: cell-based
Conditions: N-type calcium channel (NTCC) blockers after a calcium mobilization in vitro assay; differentiated IMR32 cells
Procedure: Cell maintenance and differentiation. Unless noted otherwise, cell culture reagents were purchased from Mediatech of Herndon, Md. IMR32 cells (American Type Culture Collection, ATCC, Manassas, Va.) were routinely cultured in growth medium consisting of minimum essential medium containing 10% fetal bovine serum (FBS, Hyclone, Logan, Utah), 100 U/mL penicillin, 100 μg/mL streptomycin, 2 mM L-glutamine, 1 mM sodium pyruvate, and 1×MEM non-essential amino acids. 80-90% confluent flasks of cells were differentiated using the following differentiation medium: Growth medium plus 1 mM dibutyryl cyclic AMP (Sigma, St. Louis, Mo.), and 2.5 μM bromodeoxyuridine (Sigma). Cells were differentiated for 8 days by replacing differentiation medium every 2-3 days.
FLIPR Calcium Mobilization Assay for N-type Calcium Channel. One day prior to performing this assay, differentiated IMR32 cells were treated with 1× CellStripper, and seeded on poly-D-lysine-coated 96-well clear-bottom black plates (Becton Dickinson, Franklin Lakes, N.J.) at 200,000 cells/well. On the day of the assay, the cell plates were washed with IMR32 buffer (127 mM NaCl, 1 mM KCl, 2 mM MgCl2, 700 μM NaH2PO4, 5 mM CaCl2, 5 mM NaHCO3, 8 mM HEPES, 10 mM glucose, pH 7.4), then pre-stimulated with KCl and loaded as follows: 0.05 mL of IMR^32 buffer, 0.05 mL of each compound tested diluted in IMR^32 buffer containing 20 μM nitrendipine (Sigma), and 0.1 mL KCl dissolved in IMR^32 buffer, plus Fluo-4 were added (3 μM final concentration, Molecular Probes, Eugene, Oreg.). Final test compound concentrations ranged from about 846 μM to about 17 μM, final nitrendipine concentration was 5 μM, and final KCl concentration was 90 mM. After 1 hour, the cells were washed twice with 0.05 mL of each compound tested in nitrendipine-containing IMR32 buffer (no KCl or Fluo-4), and then replaced with 0.1 mL of each compound tested in nitrendipine-containing IMR^32 buffer. Plates were then transferred to a Fluorimetric Imaging Plate Reader (FLIPR^96, Molecular Devices, Inc., Sunnyvale, Calif.) for assay. The FLIPR measured basal Fluo-4 fluorescence for 315 seconds (i.e., 5 minutes and 15 seconds), then added 0.1 mL KCl agonist dissolved in IMR32 buffer and measured fluorescence for another 45 seconds. Final test compound concentrations on the cells after FLIPR read ranged from about 846 μM to about 17 μM, final nitrendipine concentration was 5 μM, and final KCl concentration was 90 mM. Data were collected over the entire time course and analyzed using Excel, Graph Pad Prism (version 3.02, Graph Pad, San Diego, Calif.), or an in-house non-linear regression analysis software.

T1 sequence (Q00975 whole entry): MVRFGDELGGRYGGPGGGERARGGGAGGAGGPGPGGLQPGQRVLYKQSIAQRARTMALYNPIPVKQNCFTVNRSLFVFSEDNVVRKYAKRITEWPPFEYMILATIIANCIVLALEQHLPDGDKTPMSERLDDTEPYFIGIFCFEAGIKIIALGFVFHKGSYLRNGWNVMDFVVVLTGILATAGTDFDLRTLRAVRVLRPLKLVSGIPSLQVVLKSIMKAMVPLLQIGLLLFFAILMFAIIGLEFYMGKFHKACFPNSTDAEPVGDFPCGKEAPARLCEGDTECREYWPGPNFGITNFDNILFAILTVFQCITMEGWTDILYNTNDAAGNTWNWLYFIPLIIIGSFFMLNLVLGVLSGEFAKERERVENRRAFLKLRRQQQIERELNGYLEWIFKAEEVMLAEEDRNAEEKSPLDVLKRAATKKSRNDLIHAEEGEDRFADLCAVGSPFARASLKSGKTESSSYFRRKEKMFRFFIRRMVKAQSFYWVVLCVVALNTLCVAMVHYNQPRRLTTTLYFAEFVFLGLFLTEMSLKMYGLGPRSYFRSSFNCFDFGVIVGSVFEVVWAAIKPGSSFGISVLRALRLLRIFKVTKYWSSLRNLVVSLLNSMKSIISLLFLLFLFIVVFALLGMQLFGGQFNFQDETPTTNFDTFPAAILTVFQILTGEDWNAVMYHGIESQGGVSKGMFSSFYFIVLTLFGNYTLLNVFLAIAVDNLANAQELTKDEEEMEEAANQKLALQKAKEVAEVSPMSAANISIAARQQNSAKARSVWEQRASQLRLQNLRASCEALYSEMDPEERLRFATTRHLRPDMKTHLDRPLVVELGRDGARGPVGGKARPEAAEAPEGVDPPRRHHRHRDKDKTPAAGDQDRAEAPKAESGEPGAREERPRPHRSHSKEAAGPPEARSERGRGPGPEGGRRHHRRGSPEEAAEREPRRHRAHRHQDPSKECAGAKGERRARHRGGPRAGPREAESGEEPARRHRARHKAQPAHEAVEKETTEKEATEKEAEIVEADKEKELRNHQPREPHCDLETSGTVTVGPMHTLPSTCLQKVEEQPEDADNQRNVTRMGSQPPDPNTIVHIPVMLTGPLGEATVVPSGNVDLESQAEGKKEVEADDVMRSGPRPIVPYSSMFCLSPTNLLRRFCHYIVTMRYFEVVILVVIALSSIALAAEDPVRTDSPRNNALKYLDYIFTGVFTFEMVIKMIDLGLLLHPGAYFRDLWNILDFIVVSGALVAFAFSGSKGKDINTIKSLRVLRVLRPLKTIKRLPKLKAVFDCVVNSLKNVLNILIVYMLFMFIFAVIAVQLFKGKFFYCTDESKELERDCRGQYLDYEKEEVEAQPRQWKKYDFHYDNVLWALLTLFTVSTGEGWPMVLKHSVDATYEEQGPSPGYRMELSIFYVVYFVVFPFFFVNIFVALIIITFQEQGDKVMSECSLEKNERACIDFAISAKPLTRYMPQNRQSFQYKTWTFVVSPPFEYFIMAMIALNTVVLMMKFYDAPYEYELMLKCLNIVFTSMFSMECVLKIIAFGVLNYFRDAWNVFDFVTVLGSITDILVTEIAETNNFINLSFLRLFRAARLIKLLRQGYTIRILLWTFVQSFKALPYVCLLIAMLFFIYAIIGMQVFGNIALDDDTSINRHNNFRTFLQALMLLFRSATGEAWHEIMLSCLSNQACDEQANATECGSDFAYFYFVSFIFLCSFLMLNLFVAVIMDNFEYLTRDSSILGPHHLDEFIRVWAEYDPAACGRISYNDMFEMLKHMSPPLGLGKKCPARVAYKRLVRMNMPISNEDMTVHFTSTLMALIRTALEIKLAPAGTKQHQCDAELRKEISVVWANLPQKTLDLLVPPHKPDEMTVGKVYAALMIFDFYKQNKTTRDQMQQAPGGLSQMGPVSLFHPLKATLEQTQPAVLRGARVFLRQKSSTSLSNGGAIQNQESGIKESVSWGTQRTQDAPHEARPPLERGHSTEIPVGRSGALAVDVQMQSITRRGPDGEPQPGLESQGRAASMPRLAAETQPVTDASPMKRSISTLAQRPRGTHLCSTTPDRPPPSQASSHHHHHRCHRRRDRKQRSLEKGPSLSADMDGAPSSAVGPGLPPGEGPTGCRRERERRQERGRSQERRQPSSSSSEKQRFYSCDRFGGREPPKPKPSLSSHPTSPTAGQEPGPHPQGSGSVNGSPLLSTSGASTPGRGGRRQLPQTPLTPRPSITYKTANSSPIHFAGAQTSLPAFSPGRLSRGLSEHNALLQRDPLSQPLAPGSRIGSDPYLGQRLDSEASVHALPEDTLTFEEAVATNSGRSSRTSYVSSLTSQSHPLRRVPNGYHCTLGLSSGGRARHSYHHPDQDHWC
T1 sequence (P54289 25-956 partner limits assumed): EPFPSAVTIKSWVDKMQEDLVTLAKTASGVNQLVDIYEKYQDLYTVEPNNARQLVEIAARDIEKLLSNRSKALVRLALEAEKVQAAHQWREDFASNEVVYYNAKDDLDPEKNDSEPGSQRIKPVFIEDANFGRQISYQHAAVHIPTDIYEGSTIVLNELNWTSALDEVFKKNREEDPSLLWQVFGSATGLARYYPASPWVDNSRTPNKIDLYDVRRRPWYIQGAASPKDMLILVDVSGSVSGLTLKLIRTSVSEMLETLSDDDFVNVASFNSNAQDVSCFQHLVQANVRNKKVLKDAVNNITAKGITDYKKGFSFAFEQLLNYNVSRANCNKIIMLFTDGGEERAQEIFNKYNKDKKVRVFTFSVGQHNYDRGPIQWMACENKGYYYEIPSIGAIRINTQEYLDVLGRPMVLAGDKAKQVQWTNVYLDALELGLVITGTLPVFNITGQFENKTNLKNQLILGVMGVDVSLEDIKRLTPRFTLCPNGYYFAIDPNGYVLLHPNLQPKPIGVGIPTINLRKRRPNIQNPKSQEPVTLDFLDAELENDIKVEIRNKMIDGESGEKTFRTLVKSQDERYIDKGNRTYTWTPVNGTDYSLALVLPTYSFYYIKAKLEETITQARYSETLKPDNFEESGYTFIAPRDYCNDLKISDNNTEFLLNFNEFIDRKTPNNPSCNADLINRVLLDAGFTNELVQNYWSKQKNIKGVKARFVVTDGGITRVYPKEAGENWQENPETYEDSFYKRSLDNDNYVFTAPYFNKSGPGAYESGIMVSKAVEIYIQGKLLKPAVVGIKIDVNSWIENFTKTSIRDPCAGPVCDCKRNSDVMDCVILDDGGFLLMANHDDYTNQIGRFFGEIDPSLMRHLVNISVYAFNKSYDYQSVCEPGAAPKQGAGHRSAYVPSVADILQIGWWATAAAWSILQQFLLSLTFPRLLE
T1 sequence (P54289 957-1103 partner limits assumed): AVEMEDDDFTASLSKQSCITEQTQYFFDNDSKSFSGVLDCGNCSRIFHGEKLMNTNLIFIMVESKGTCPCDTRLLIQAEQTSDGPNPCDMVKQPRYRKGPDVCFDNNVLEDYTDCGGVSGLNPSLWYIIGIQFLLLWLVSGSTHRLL
T1 sequence (P54284 whole entry partner): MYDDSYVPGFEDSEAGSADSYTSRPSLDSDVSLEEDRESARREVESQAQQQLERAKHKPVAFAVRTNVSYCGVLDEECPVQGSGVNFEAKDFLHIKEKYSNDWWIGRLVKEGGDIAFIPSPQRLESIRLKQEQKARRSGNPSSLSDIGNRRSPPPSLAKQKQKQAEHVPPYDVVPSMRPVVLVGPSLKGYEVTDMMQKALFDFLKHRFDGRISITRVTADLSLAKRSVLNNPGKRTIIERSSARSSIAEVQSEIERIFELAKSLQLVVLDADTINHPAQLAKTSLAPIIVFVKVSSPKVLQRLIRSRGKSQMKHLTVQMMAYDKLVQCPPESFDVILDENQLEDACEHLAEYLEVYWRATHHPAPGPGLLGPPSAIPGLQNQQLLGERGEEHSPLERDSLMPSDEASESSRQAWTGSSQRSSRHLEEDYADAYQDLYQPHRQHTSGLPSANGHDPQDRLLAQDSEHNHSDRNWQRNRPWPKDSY

Row | Compound | IC50
1 | O=C(C=C1CCN(S(=O)(=O)c2ccc(OC(F)(F)F)cc2)CC1)NC1(c2ccc(F)cc2)CC1 [Example 12, N-(1-(4-fluorophenyl)cyclopropyl)-2-(1-(4-(trifluoromethoxy)phenylsulfonyl)piperidin-4-ylidene)Acetamide] | 0.361 µM
2 | CO/C(=C\C1CN(S(=O)(=O)c2ccc(OC(F)(F)F)cc2)CCO1)C(=O)NC1CC1 (centres unmarked) [Example 44, (Z)—N-cyclopropyl-2-methoxy-3-(4-(4-(trifluoromethoxy)phenylsulfonyl)morpholin-2-yl)acrylamide] | 0.857 µM
3 | O=C(C=C1CCN(S(=O)(=O)c2cccc(C(F)(F)F)c2)CC1)NCC1CC1 [Example 22, N-(cyclopropylmethyl)-2-(1-(3-(trifluoromethyl)phenylsulfonyl)piperidin-4-ylidene)acetamide] | 0.829 µM
4 | CC(C)(c1cccc(C(F)(F)F)c1)N1CCC(=CC(=O)NCC2CC2)CC1 [Example 31, N-(cyclopropylmethyl)-2-(1-(2-(3-(trifluoromethyl)phenyl)propan-2-yl)piperidin-4-ylidene)acetamide] | 0.681 µM
5 | CO/C(=C\C1CCN(S(=O)(=O)c2ccc(OC(F)(F)F)cc2)CC1)C(=O)NC1CC1 [Example 37, (Z)—N-cyclopropyl-2-methoxy-3-(1-(4-(trifluoromethoxy)phenylsulfonyl)piperidin-4-yl)acrylamide] | 0.555 µM
6 | CO/C(=C/C1CCN(S(=O)(=O)c2ccc(OC(F)(F)F)cc2)CC1)C(=O)NC1CC1 [Example 38, (E)-N-cyclopropyl-2-methoxy-3-(1-(4-(trifluoromethoxy)phenylsulfonyl)piperidin-4-yl)acrylamide] | 0.832 µM
7 | O=C(/C=C1\CCCN(S(=O)(=O)c2ccc(OC(F)(F)F)cc2)C1)NC1CC1 [Example 41, (E)-N-cyclopropyl-2-(1-(4-(trifluoromethoxy)phenylsulfonyl)piperidin-3-ylidene)acetamide] | 0.99 µM
8 | COC(=O)C(NC(=O)C=C1CCN(S(=O)(=O)c2ccc(OC(F)(F)F)cc2)CC1)c1ccc(F)cc1 (centres unmarked) [Example 19, methyl 2-(4-fluorophenyl)-2-(2-(1-(4-(trifluoromethoxy)phenylsulfonyl)piperidin-4-ylidene)acetamido)Acetate] | 0.865 µM
9 | COC(C(=O)NCC1CC1)=C1CCN(S(=O)(=O)c2ccc(OC(F)(F)F)cc2)CC1 [Example 32, N-(cyclopropylmethyl)-2-methoxy-2-(1-(4-(trifluoromethoxy)phenylsulfonyl)piperidin-4-ylidene)acetamide] | 0.912 µM
10 | O=C(/C=C1\CCCN(S(=O)(=O)c2ccc(OC(F)(F)F)cc2)C1)NCC1CC1 [Example 40, (E)-N-(cyclopropylmethyl)-2-(1-(4-(trifluoromethoxy)phenylsulfonyl)piperidin-3-ylidene)acetamide] | 0.695 µM

Continued, values first:

Row | IC50 | Compound
11 | 0.822 µM | O=C(C=C1CCN(S(=O)(=O)c2ccc(OC(F)(F)F)cc2)CC1)NC(CO)c1ccc(F)cc1 (centres unmarked) [Example 20, N-(1-(4-fluorophenyl)-2-hydroxyethyl)-2-(1-(4-(trifluoromethoxy)phenylsulfonyl)piperidin-4-ylidene)acetamide]
12 | 0.598 µM | O=C(C=C1CCN(S(=O)(=O)c2ccc(OC(F)(F)F)cc2)CC1)NCc1ccccc1 [Example 3, N-benzyl-2-(1-(4-(trifluoromethoxy)phenylsulfonyl)piperidin-4-ylidene)Acetamide]
13 | 0.56 µM | N#Cc1ccc(CNC(=O)C=C2CCN(S(=O)(=O)c3ccc(OC(F)(F)F)cc3)CC2)cc1 [Example 11, N-(4-cyanobenzyl)-2-(1-(4-(trifluoromethoxy)phenylsulfonyl)piperidin-4-ylidene)Acetamide]
14 | 0.115 µM | O=C(C=C1CCN(S(=O)(=O)c2ccc(OC(F)(F)F)cc2)CC1)NCc1ccc(F)cc1 [Example 9, N-(4-fluorobenzyl)-2-(1-(4-(trifluoromethoxy)phenylsulfonyl)piperidin-4-ylidene)Acetamide]
15 | 0.718 µM | CC(C)OCCNC(=O)C=C1CCN(S(=O)(=O)c2ccc(OC(F)(F)F)cc2)CC1 [Example 15, N-(2-isopropoxyethyl)-2-(1-(4-(trifluoromethoxy)phenylsulfonyl)piperidin-4-ylidene)Acetamide]
16 | 0.161 µM | CN(Cc1ccc(F)cc1)C(=O)C=C1CCN(S(=O)(=O)c2ccc(OC(F)(F)F)cc2)CC1 [Example 10, N-(4-fluorobenzyl)-N-methyl-2-(1-(4-(trifluoromethoxy)phenylsulfonyl)piperidin-4-ylidene)Acetamide]
17 | 0.248 µM | O=C(C=C1CCN(S(=O)(=O)c2ccc(OC(F)(F)F)cc2)CC1)NCCC1CC1 [Example 13, N-(2-cyclopropylethyl)-2-(1-(4-(trifluoromethoxy)phenylsulfonyl)piperidin-4-ylidene)Acetamide]
